Data from patent publication US7491849B2, “Oligoamine compounds and derivatives thereof for cancer therapy” (priority 2001, dated 2009).

Legend:
[1] = test system: LnCap; assay: MTT assay, tumor cell growth, LnCap; format: cell-based; settings: 6 days incubation, read-out: ID50 (μM) values for Human Tumor Cell Lines, LnCap
Procedure: Effect of Saturated Oligoamines on Human Prostate Tumor Cell Growth by the MTT assay. Saturated oligoamines inhibited prostate cancer cell growth in vitro. DU-145 cells were most sensitive and PC-3 cells were less sensitive to the effects of oligoamines. In general, ID50 values of less than 0.5 μM were obtained (Table 2). Even though the PC-3 cells were relatively more resistant to the oligoamines, at a 5 μM concentration the oligoamines reduced the cell number to less than 1% of the control on day 6 of incubation. Tissue cultures and the MTT assay were performed as follows.
Tissue Culture. Cells were seeded into 75 cm^2 culture flasks with 15 ml of Eagle's minimal essential medium supplemented with 10% fetal calf serum and nonessential amino acids. The flasks were incubated in a humidified 95% air/5% CO2 atmosphere. The cells were grown for at least 24 h to ensure that they are in the log phase of growth and then they were treated with the oligoamines. Cells were harvested by treatment for 5 min with STV (saline A, 0.05% trypsin, 0.02% EDTA) at 37° C. The flasks were rapped on the lab bench, pipetted several times and aliquots of cell suspension were withdrawn and counted using a Coulter particle counter that has been standardized for counting each cell line using a hemacytometer.
MTT Assay: Trypsinized cell suspensions were diluted to seed 80 μl suspensions containing 500 cells in each well of a 96 well Corning microtiter plate and incubated overnight at 37° C. in a humidified incubator in 5% CO2. 20 μl of appropriately diluted stock solution of each drug were added to the middle 8 columns of cell suspension in the microtiter plates. Each drug concentration was run in quadruplicate. Outer columns of the plates were used for buffer controls. Cells were incubated with the drug for 6 days at 37° C. in 5% CO2/H2O atmosphere. 25 μl of 5 mg/ml solution of 3-(4,5-dimethylthiazol-2-yl)-2,5-diphenyl tetrazolium bromide (MTT) were added to each well and incubated for 4 hours at 37° C. in 5% CO2/H2O incubator. Cells were lysed by incubating overnight with 100 μl lysis buffer (500 ml of the lysis buffer contains: 100 g lauryl sulfate (SDS), 250 ml of N,N-dimethylformamide, and 2 ml of glacial acetic acid, made up to volume with water; pH 4.8).
The color was monitored at room temperature at 570 nm in a E-max Precision Microplate Reader (Molecular Devices Corporation, Sunnyvale, Calif.) and data was analyzed using cell survival software supplied by Molecular Devices Corporation.

[2] = test system: DU-145 human prostate tumor xenografts; assay: Subcutaneous DU-145 prostate tumor xenograft in mice; format: in vivo, male NCr-nu mice; settings: for Days Delay (T-C) / Non-Specific Deaths/Total / Tumor Free Survival/Total / Tumor Regression, Number of Complete / Tumor Regression, Number of Partial / Days to 4 Doublings / % T/C, Day 21 (median tumor weight) / % T/C, Day 35 (median tumor weight) / median tumor growth delay [(T-C)/C x 100] / tolerability / deaths: 6.25 mg/kg IV; for Days Delay (T-C) / Non-Specific Deaths/Total / Tumor Free Survival/Total / Tumor Regression, Number of Complete / Tumor Regression, Number of Partial / Days to 4 Doublings / % T/C, Day 21 (median tumor weight) / % T/C, Day 35 (median tumor weight): Q1D x 5 day 14, 28; for Days to 4 Doublings: control 17.1; for % T/C, Day 21 (median tumor weight): three days after first round; for % T/C, Day 35 (median tumor weight): three days after second round; for median tumor growth delay [(T-C)/C x 100]: two rounds, statistically significant; for antitumor activity (summary): at a dosage which was well tolerated (6.25 mg/kg IV)
Procedure: Response of implanted sc DU-145 prostate tumors to treatment with SL-11159 and SL-11226. This experiment evaluates the antitumor efficacy of SLIL Biomedical Corporation compounds (SL-11159, SL-11226) against subcutaneously-implanted DU-145 human prostate tumor xenografts in male NCr-nu (line 3A10F17T1) mice. All compounds were tested at a single dose level when administered intravenously (iv), at 6.25 mg/kg. Both SL-11159 and SL-11226 were prepared in water for injection (soluble); the injection volume was 0.1 mL/10 g body weight.
All compounds were administered for two rounds of five daily treatments with a nine-day rest period between the rounds. The control group was treated with vehicle (water for injection) for two rounds on a Q1D×5 schedule. There were sixteen mice in the control group and eight mice in each of the treatment groups. All treatments were initiated on day 14 postimplant when all mice had established tumors ranging in size from 75 to 198 mg. The experiment was terminated on day 53 after tumor implantation. The individual animal's time to reach the evaluation size (time to reach four doublings) was used in the calculations of the median tumor growth delay [(T−C)/C×100, %] and as the endpoint in a life tables analysis (stratified Kaplan-Meier estimation followed by the Mantel-Haenszel log-rank test) in order to statistically compare the growth data between groups (see Table 5; group 1 is the control group, group 2 was treated with SL-11159, group 3 was treated with SL-11226).
The time required for a tumor to double in mass is calculated based on the initial tumor weight at the beginning of the treatment period. When the initial tumor weight has been selected, tumor weights are then examined, beginning with the last recorded value, until a doubling is calculated. Examination from the last recorded value is to ensure that the doubling time is calculated during the final phase of tumor growth and not prior to a tumor regression. Values between measurements are calculated by exponential […], and a value may be estimated after the final measured weight provided the extrapolated value occurs prior to the animal's death.)
Control tumors grew well in fourteen out of sixteen mice. There was one xenograft failure (no-take). One animal died during the second round of the vehicle treatment, on day 29, with a tumor weight of 770 mg. Tumors reached the evaluation size of four mass doublings in 17.1 days, which covers the period of the first round of treatment and three days of the second round of treatment. The effect of each round of treatment was evaluated by the comparison of the median tumor weight of the treated groups on days 21 or 35 (three days after the end of the first or the second round of treatment, respectively) to the median tumor weight of the control group on the same day (T/C×100%, see Table 4A).
Tumor regression was scored (excluding nonspecific deaths), according to the smallest tumor size attained after the beginning of treatment relative to the size at first treatment: • partial: <50 percent of its size at 1 st rx, but not complete. • complete: tumor becomes unpalpable.
Duration of regression: the interval during which a tumor classified as a partial or complete regressor was below 50 percent of its size at first treatment.
Evaluation size: this value is the tumor mass selected at four mass doublings beginning with the initial tumor size at the start of treatment.
T−C (days): the difference in the median of times postimplant for tumors of the treated groups to attain an evaluation size compared to the median of the control group.

SMILES	IC50 [1] [µM]	Days Delay (T-C) [2] [days]	Non-Specific Deaths/Total [2]	Tumor Free Survival/Total [2]	Tumor Regression, Number of Complete [2]	Tumor Regression, Number of Partial [2]	Days to 4 Doublings [2] [days]	% T/C, Day 21 (median tumor weight) [2] [%]	% T/C, Day 35 (median tumor weight) [2] [%]	median tumor growth delay [(T-C)/C x 100] [2] [%]	antitumor activity (summary) [2]	tolerability / deaths ([2]; first round of treatment)	tolerability / deaths ([2]; second round of treatment)	tolerability / deaths ([2]; whole treatment (two rounds))
CCNCCCCNCCCCNCCCCNCCCCNCCCCNCCCCNCCCCNCCCCNCCCCNCC.Cl.Cl.Cl.Cl.Cl.Cl.Cl.Cl.Cl.Cl [SL-11159]	0.25	>6.9	1/8	0/8	0	0	>24.0	65	63	> 40	measurable antitumor activity	well tolerated without deaths	death of one animal	
CCNCCCCNCCCCNCCCCNCCCCNCCCCNCCCCNCCCCNCCCCNCCCCNCCCCNCCCCNCC.Cl.Cl.Cl.Cl.Cl.Cl.Cl.Cl.Cl.Cl.Cl.Cl [SL-11226]	0.15	>6.4	0/8	0/8	0	0	>23.5	46	61	> 37	measurable antitumor activity			well tolerated without deaths
